In patent US7705016B2, “Regulation of food intake by modulation of long-chain fatty acyl-CoA levels in the hypothalamus” (Albert Einstein College of Medicine of Yeshiva University, priority 2003, dated 2010):

How the values were obtained:
[1] = molecular target: T1, hypothalamic CPT1 (Rattus norvegicus, UniProt P32198); assay: ICV CPTi with or without glybenclamide or liver-selective vagotomy, pancreatic/insulin clamp (Example 4); type: in vivo; design: from tissue; host or cells: hypothalamus of living S-D rats; conditions: ICV GLY in CON-infused rats (CON-GLY); not shown
T1 sequence (P32198 1-773): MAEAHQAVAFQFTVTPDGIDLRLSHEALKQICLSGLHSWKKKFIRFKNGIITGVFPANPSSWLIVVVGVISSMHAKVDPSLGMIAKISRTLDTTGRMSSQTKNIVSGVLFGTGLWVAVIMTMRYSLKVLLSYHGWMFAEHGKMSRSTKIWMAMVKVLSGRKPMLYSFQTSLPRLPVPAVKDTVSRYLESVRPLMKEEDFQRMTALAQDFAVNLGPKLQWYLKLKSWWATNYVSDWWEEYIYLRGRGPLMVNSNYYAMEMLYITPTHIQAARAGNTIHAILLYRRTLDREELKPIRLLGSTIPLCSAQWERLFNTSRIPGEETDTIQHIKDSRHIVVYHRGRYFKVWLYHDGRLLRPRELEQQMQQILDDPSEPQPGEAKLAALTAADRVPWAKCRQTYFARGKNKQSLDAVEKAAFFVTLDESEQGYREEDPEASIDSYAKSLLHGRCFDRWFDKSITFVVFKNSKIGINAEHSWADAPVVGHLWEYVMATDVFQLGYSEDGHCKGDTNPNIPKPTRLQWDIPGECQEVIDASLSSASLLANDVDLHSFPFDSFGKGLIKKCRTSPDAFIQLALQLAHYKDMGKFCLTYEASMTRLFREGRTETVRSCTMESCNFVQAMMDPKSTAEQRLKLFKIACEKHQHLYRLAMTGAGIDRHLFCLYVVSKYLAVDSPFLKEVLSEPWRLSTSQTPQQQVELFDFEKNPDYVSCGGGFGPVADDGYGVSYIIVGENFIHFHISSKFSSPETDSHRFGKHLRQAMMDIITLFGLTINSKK
Excerpt: Decreasing Hypothalamic Lipid Oxidation Inhibits Endogenous Glucose Production (GP) via stimulation of K-channels (KATP) and Vagus Nerve. Administration either of the long-chain fatty acid (LCFA) oleic acid (OA) or of inhibitors of CPT-1 activity (CPT1) in the third cerebral ventricle (ICV) inhibits GP. Here, we hypothesize that inhibition of hypothalamic lipid oxidation with CPTi decreases GP via central activation of ATP-dependent potassium channels (KATP) leading to increased vagal input to the liver. […] All rats also received an IV infusion of [3-^3H]-glucose for the last 4 hr of ICV infusion and pancreatic/insulin clamp (insulin 1 mU/kg/min; somatostatin […]) during the last 2 hr of each study. In the presence of basal insulin levels, glucose infusion (GIR) was required to prevent hypoglycemia in the CPTi (4.9±1.0 mg/kg/min), but not in the CON (2.1±0.4 mg/kg/min) and CPTi-GLY (1.4±0.5 mg/kg/min) groups. […] To investigate whether this neural pathway acts via the hepatic branch of the vagus nerve, ICV CPTi or CON infusions were also performed in rats receiving liver-selective vagotomy (LV) or sham-operation (SH). GIR was markedly higher in CPTi-SH (4.7±1.3 mg/kg/min) compared with both CON-SH (1.3±0.4 mg/kg/min) and CPTi-LV (0.8±0.5 mg/kg/min). […]

[2] = test system: KATP; assay: IV lipid infusion with ICV glybenclamide or hepatic vagotomy, pancreatic clamp (Example 4); type: in vivo, rat; conditions: near basal insulin (~27 μU/ml), groups S+ICVG, IL+ICVC
Method: Hepatic “Autoregulation” in Response to Lipid Infusion Requires Central Stimulation of K-channels (KATP) and Liver Vagal Innervation. […] Since the administration of the LCFA oleic acid in the third cerebral ventricle (ICV) inhibits GP via stimulation of KATP, here we test the hypotheses that: 1) the central activation of KATP by LCFAs restrains GP during lipid infusions, and 2) that this effect requires hepatic vagal input. To this end, 5 h fasted S-D rats were randomized to receive: IV Intralipid+heparin (IL) (increased LCFA levels by ˜3 fold) or saline (S) in combination with ICV Glybenclamide (G) [inhibitor of KATP] or vehicle (C) for 6 h. All rats also received IV infusions of [3-^3H]-glucose for the last 4 h and [U-^14C]-lactate for the last 10 min of the ICV infusion and a pancreatic clamp during the last 2 h of each study. During the clamp period, in the presence of near basal insulin levels (˜27 μU/ml), GP (˜6 mg/kg.min) was unchanged in S+ICVC, S+ICVG or IL+ICVC. […] To examine whether the central effects of LCFA on GP are mediated by vagal stimulation, we next repeated the lipid infusion studies in rats with selective hepatic vagotomy (HV). During the pancreatic clamp period, GP (˜6 mg/kg/min) was similar in S-treated HV and S or IL treated sham-operated rats. Importantly, IL increased GP to 9.7±0.5 (P<0.001) in HV, recapitulating the effect ICVG. […]

[3] = molecular target: T1, hypothalamic CPT1; assay: Food intake after ICV bolus of CPT1 antagonists; type: in vivo; design: CPT1 activity was measured in the particulate fraction of protein extracts from animals treated with ICV control injections; from tissue; host or cells: hypothalamus (arcuate nucleus) of male Sprague-Dawley rats, in vivo or ex vivo; conditions: single ICV injection
Method: Hypothalamic inhibition of CPT1 decreases food intake. First we examined whether central administration of molecular and pharmacological antagonists of CPT1 modulates feeding behavior in conscious rats (FIG. 3). […] Food intake was monitored in metabolic cages before and up to 72 h after the ICV injections (Obici et al., 2002a). […] The marked effect of ICV CPT1L-Ribo on food intake was significant when compared with either control vector or with an unrelated control ribozyme (FIG. 3c). […] The anorectic effect of central CPT1 inhibition lasted for at least 48 h following a single ICV administration. These decreases in food intake were significant compared with both baseline and vehicle/control (FIG. 3a-e). The changes from baseline induced by CPT1 inhibition were statistically significant at 24 h (−17.6±2.0 g and −12.4±3.9 g), and 48 h (−13.4±1.8 g and −7.8±3.8 g) following ICV administration of CP1L-Ribo and high dose ST 1326, respectively (FIGS. 3b and e). This represented a ˜50% decrease in daily food intake, which returned toward baseline values by 72 h.
(§1) Animal preparation for in vivo experiments. We studied ninety-three 10-week old male Sprague-Dawley rats (Charles River Breeding Laboratories, Wilmington, Mass.). Rats were housed in individual cages and subjected to a standard light-dark cycle. Three weeks prior to the in vivo studies, we placed a chronic catheter in the third cerebral ventricle by stereotaxic surgery (Obici et al., 2002a; Obici et al., 2001; Liu et al., 1998). One week before the pancreatic-insulin clamp protocols, we placed additional catheters in the right internal jugular and left carotid artery (Obici et al., 2001; Liu et al., 1998). All ICV solutions were dissolved in artificial cerebral spinal fluid (aCSF). Food intake was monitored daily.
Effect of central inhibition of CPT1 and food intake. We examined the effects of ICV CPT1L-Ribo and ST 1326 on food intake. Three-hours before the start of the dark cycle, CPT1L-Ribo or vector control, ST 1326 or ST 1340 was injected as a bolus via indwelling catheters implanted in the third cerebral ventricle. In the feeding studies, rats received a single bolus injection of 25 pmoles of ST1340 or two different doses (5 and 25 pmoles) of ST1326. Rats were adapted to the metabolic cages and their daily food intake had been constant (changes <10%) for a minimum of three consecutive days preceding the ICV injections. Food intake was continuously monitored for the following 72 h.

[4] = molecular target: T1, hypothalamic CPT1; assay: ICV infusion with pancreatic-insulin clamp, glucose kinetics (Example 1); type: in vivo; design: CPT1 activity was measured in the particulate fraction of protein extracts from animals treated with ICV control injections; from tissue; host or cells: hypothalamus (arcuate nucleus) of male Sprague-Dawley rats, in vivo or ex vivo; Insulin (iU/ml): unit not given here; conditions: for Food Intake: measured prior to acute ICV infusion, except CPT1L-Ribo group (3 days after ICV)
Method: Hypothalamic inhibition of CPT1 inhibits glucose production. Experiments were also designed to examine the effect of central inhibition of CPT-1 on whole body insulin action (FIG. 4a,b). Insulin action was assessed by a combination of ICV infusions with systemic pancreatic-insulin clamp studies (FIG. 4b). In these studies, the daily food intake was matched in the rats receiving ICV vector and ICV CPT1L-Ribo (Table 1). All rats also received an intra-arterial infusion of [3-^3H]-glucose for the last 4 hr of ICV infusion and a pancreatic/insulin clamp (insulin 1 mU/kg.min; somatostatin 3 μg/kg/min) during the last 2 hr of the study (Obici et al., 2002a; Obici et al., 2001). As expected in the presence of ˜basal circulating insulin levels (clamp procedure; Table 1), the rate of glucose infusion (GIR) required to maintain euglycemia was marginal in ICV control studies (vector-ST1340- or vehicle-infused animals; ˜0.8 mg/kg/min). By contrast, following ICV infusion of inhibitors of CPT-1 expression or activity glucose had to be infused at the rate of ˜5 mg/kg/min in order to prevent hypoglycemia. Thus, central inhibition of CPT-1 activity in the presence of fixed and basal insulin concentrations stimulates insulin action on glucose homeostasis.
as §1
Measurements of in vivo glucose kinetics and pancreatic-insulin clamp procedure. The infusion studies lasted a total of 360 min (FIG. 3a). Briefly, at t=0 min a primed-continuous ICV infusion of either CPT1 inhibitors or control solution was initiated and maintained for the remainder of the study. 2-tetradecylglydate (TDGA, a gift from Dr. Manuel Guzman) was dissolved in DMSO, diluted into aCSF (Harvard Apparatus) and infused ICV at a rate of 50 pmoles/hr. […] Prior to the pancreatic-insulin clamp studies, rats receiving ICV injection of either CPT1L-Ribo or vector control three days prior to the clamp procedure were randomized into two pair-fed experimental groups. A primed-continuous infusion of HPLC-purified [3-^3H]-glucose (New England Nuclear, Boston, Mass.; 40 μCi bolus, 0.4 μCi/min) was started at t=120 min and continued for the duration of the study (Obici et al., 2002a; Obici et al., 2001; Liu et al., 1998). Finally, a pancreatic-insulin clamp (Obici et al., 2002a; Obici et al., 2001; Liu et al., 1998) was initiated at t=240 min and lasted for 2 hours. This procedure involved the infusion of somatostatin (3 μg/kg/min), insulin (1 mU/kg/min), and glucose as needed to prevent hypoglycemia, or antibodies against C peptide (Linco) and Melanocortin Receptor type 2 (Chemicon). The rate of insulin infusion was designed to replace normal basal levels in postabsorptive rats.
Radioactivity of [^3H]glucose in plasma was measured from supernatants of Ba(OH)2 and ZnSO4 precipitates after evaporation to dryness for the removal of tritiated water (Somogyi pellet). The specific activity of tritiated water in plasma (Somogyi filtrate) was determined from the total counts of the protein-free supernatant before and after evaporation to dryness. Under steady state conditions for plasma glucose concentration, the rate of glucose disappearance (Rd) equals the rate of glucose appearance (Ra). […]

[5] = test system: rats; conditions: ICV, equimolar to oleic acid; cited from earlier work

For `COc1ccc(Cl)cc1C(=O)NCCc1ccc(S(=O)(=O)NC(=O)NC2CCCCC2)cc1` [GLY, glybenclamide], which GP [1] is on record?
The GP was “did not alter”.

What about the “GP during the clamp period” value [2] of the same compound?
Its value is about 6 mg/kg.min.

Which “effect on food intake / feeding behavior” value [3] does the source give for `CCCCCCCCCCCCCCNC(=O)N[C@@H](CC(=O)[O-])C[N+](C)(C)C` [ST1340, (S)-N-(tetradecylcarbamoyl)-aminocarnitine] here?
Its value is “failed to modify feeding behavior”.

What about the “Body wt.” value ([4]; Basal) of the same compound?
The value was 307 ± 6 g.

What about the “FFA” value ([4]; Basal) of the same compound?
The value was 0.4 ± 0.1 mM.

And the “Glucose” value ([4]; Basal)?
Its value is 8.0 ± 1.0 mM.

And the “Insulin” value ([4]; Basal)?
Its value is 1.4 ± 0.2 ng/mL.

And the “Leptin” value ([4]; Basal)?
Its value is 0.9 ± 0.2 ng/mL.

What about the “Food Intake” value ([4]; Basal) of the same compound?
Its value is 22 ± 3 g.

And the “FFA” value ([4]; Clamp, steady-state)?
Its value is 0.4 ± 0.1 mM.

And the “Glucose” value ([4]; Clamp, steady-state)?
Its value is 8.2 ± 0.9 mM.

And the “Insulin (iU/ml)” value ([4]; Clamp, steady-state)?
The value was 25 ± 4.

What about the “rate of glucose infusion (GIR) required to maintain euglycemia” value ([4]; pancreatic-insulin clamp, ~basal insulin, ICV infusion) of the same compound?
The value was about 0.8 mg/kg/min.

For `CCCCCCCCCCCCCCC1(C(=O)O)CO1` (stereo not shown) [TDGA, 2-tetradecylglydate], which “Body wt.” value ([4]; Basal) is on record?
The value was 319 ± 10 g.

And the “FFA” value ([4]; Basal)?
The value was 0.5 ± 0.1 mM.

What about the “Glucose” value ([4]; Basal) of the same compound?
Its value is 8.2 ± 0.8 mM.

What about the “Insulin” value ([4]; Basal) of the same compound?
Its value is 1.9 ± 0.1 ng/mL.

And the “Leptin” value ([4]; Basal)?
The value was 1.7 ± 0.1 ng/mL.

What about the “Food Intake” value ([4]; Basal) of the same compound?
Its value is 25 ± 2 g.

And the “FFA” value ([4]; Clamp, steady-state)?
Its value is 0.5 ± 0.1 mM.

And the “Glucose” value ([4]; Clamp, steady-state)?
Its value is 8.1 ± 0.5 mM.

And the “Insulin (iU/ml)” value ([4]; Clamp, steady-state)?
The value was 25 ± 3.

What about the “decrease in glucose production (GP)” value ([4]; basal and equal insulin levels (~20 μU/ml), ICV) of the same compound?
Its value is 47±6%.

And the “glucose production (GP) during pancreatic clamp vs ICV vehicle controls” value ([4]; ~basal insulin concentrations, p<0.01)?
Its value is “markedly inhibited GP”.

Which “suppressive effects of ICV oleic acid on food intake and on GP, with equimolar administration” value [5] does the source give for `CCCCCCCC(=O)O` [octanoic acid] here?
Its value is “not replicated”.
